# Measurements: patent US10414721B1, “Inhibitor of endocannabinoid cellular reuptake” (University of Bern, priority 2018, dated 2019)
# Like-named read-outs stand apart in the source and are kept apart here.
# What was measured:
# [1] = tested on: BALB/c male mice; experiment: Endocannabinoid and NAE levels 1 h after oral administration; type: in vivo, mouse; conditions: for 2-AG level in plasma: control 16.1±2.9
# Protocol: (§1) Male C57BL6/J or male BALB/c mice were orally administered by gavage with 10, 25, 50 or 100 mg/kg of WOBE437 (100 μL; olive oil and ethanol 8:2) using a metal feeding needle (20G, Kent Scientific, USA). The mice were sacrificed by decapitation after gavage administration. Brain, blood, liver, kidney and spleen were collected for the LC-MS/MS analyses. All tissues were briefly washed with ice cold PBS and immediately snap-frozen and stored at −80° C. Whole brain samples were dissected between the hemispheres. Blood samples were immediately centrifuged to obtain plasma, which was stored at −80° C.
# (§2) Samples extractions and LC-MS/MS measurements were performed as previously described (Chicca et al., 2017). Briefly, tissues were weighted and transferred in to extraction tubes containing three steel beads and 0.1 M formic acid. Tissues were homogenized and rapidly transferred to glass tubes containing 1.5 mL of ethyl acetate:hexane (9:1) 0.1% formic acid and internal standards (ISs). Samples were centrifuged and the organic phase was recovered. After evaporation, the extracts were reconstituted in 200 μL of ACN:ddH2O (8:2). 10 μL of the solution were injected in the LC-MS/MS system using the same LC and ionization protocols as described (Chicca et al., 2017).
# [2] = Oral bioavailability and tissue distribution; type: in vivo, mouse; conditions: for Cmax: read-out: apparent Cmax in plasma; for concentration at 20 min: oral, read-out: plasma level
# Protocol: as §1, §2
# [3] = molecular target: COX-2 (Homo sapiens, UniProt P35354); experiment: COX-2 activity assay; type: biochemical
# Protocol: (§3) FAAH, ABHDs, MAGL and COX-2 activity assays were performed using cell homogenates, human recombinant enzymes and mouse, rat and pig brain homogenates as previously described.
# [4] = molecular target: FAAH (Homo sapiens, UniProt O00519); experiment: FAAH activity / AEA hydrolysis assay; type: biochemical; conditions: human recombinant enzyme, cell and brain homogenates; read-out: IC50 for AEA hydrolysis (FAAH) inhibition
# Protocol: as §3
# [5] = tested on: CB1 receptors; experiment: Functional CB1 receptors in brain after repeated treatment; type: in vivo, mouse; conditions: 7 days of daily treatment
# Protocol: CB1 and CB2 receptor binding assays [^35S]GTPγS assays were performed as previously described. WOBE437 was profiled in more detail in an extended CNS adverse drug reaction screening panel (CEREP).
# [6] = tested on: 2-AG uptake in U937 cells; experiment: 2-AG uptake inhibition in U937 cells; type: cell-based
# Protocol: (§4) All radioactivity-based AEA and 2-AG uptake and release assays performed in U937, and HMC-1 cells were carried out using two different assay formats as previously reported. AEA and 2-AG uptake assay in Neuro2a and primary mouse cortical neurons were performed with a different method disclosed in Chicca 2017.
# [7] = Microsomal clearance, human liver microsomes; type: in vitro ADME
# Protocol: Human or mice microsome clearance experiment were carried out as according to a previously describe protocol. Briefly, microsome preparation (0.5 mg/mL) plus cofactor NADPH solution was incubated with 1 μM of WOBE437 in 96-well plates at 37° C. After 1, 3, 6, 9, 15, 25, 35 and 45 min, 40 μL of the preparation was transferred and quenched with 3:1 (v/v) acetonitrile containing internal standards. Samples were then cooled and centrifuged before analysis by LC-MS/MS. Log peak area ratios (test compound peak area/internal standard peak area) are plotted against incubation time using a linear fit. The calculated slope is used to determine the intrinsic clearance. Data are obtained from single experiments measured with multiple time-points.
# [8] = molecular target: fatty acid binding protein 5 (FABP5) (Homo sapiens, UniProt Q01469); experiment: FABP5 binding
# [9] = tested on: C57BL6/N mice; experiment: Elevated plus maze (EPM); type: in vivo, mouse; conditions: 3 mg/kg
# Protocol: WOBE437 was initially assessed in a battery of four individual tests typically associated with CB1 receptor activation in mice (nociception, locomotion, body temperature and cataleptic behavior), collectively referred to as the “tetrad”. Dose-response experiments identified 10 mg/kg as the lowest dose to elicit a moderate but complete tetrad in BALB/c mice upon intraperitoneal (i.p.) administration (FIGS. 3A-D). […] To assess whether the WOBE437-induced effects were CB1 receptor-mediated, mice were pre-treated with the selective antagonist/inverse agonist rimonabant (SR1). […] These experiments provided a proof-of-concept for the mechanism of action of WOBE437 as a novel “indirect CB1 receptor agonist”. In subsequent studies, the effects of WOBE437 in pain, inflammatory and anxiety models were investigated. […] Both effects were reversed by SR1.
# WOBE437 and RX-055 were tested in independent laboratories, in different mouse strains and in multiple (behavioral) models for cannabimimetic, analgesic, anti-inflammatory and anxiolytic-effects in wild-type and phenotypical CB1-KO mice as described in Chicca 2017.
# [10] = tested on: AEA uptake in Neuro2a mouse neuroblastoma cells; experiment: AEA uptake inhibition in Neuro2a cells; type: cell-based
# Protocol: as §4
# Chain of COX-2 (P35354 18-604): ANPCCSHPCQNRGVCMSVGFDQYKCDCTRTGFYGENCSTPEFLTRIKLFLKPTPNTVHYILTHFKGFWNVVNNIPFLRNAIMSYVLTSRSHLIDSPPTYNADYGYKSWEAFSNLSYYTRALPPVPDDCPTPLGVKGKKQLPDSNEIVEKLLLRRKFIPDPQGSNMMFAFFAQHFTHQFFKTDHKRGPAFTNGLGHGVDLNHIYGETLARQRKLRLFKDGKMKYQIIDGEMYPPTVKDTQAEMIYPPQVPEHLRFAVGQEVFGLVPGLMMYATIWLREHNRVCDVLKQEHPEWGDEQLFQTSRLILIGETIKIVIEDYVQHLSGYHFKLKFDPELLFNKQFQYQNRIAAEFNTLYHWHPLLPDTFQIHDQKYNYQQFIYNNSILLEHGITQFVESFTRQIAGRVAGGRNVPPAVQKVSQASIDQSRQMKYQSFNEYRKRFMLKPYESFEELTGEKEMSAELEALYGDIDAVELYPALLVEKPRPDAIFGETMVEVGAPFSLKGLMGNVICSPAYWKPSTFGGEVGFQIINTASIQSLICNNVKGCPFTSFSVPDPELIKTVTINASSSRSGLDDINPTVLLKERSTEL
# Chain of fatty acid binding protein 5 (FABP5) (Q01469 whole entry, species assumed): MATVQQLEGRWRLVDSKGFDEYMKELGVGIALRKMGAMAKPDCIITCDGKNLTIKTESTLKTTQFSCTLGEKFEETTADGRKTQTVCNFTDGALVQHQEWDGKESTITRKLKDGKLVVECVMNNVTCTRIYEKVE
# Chain of FAAH (O00519 whole entry): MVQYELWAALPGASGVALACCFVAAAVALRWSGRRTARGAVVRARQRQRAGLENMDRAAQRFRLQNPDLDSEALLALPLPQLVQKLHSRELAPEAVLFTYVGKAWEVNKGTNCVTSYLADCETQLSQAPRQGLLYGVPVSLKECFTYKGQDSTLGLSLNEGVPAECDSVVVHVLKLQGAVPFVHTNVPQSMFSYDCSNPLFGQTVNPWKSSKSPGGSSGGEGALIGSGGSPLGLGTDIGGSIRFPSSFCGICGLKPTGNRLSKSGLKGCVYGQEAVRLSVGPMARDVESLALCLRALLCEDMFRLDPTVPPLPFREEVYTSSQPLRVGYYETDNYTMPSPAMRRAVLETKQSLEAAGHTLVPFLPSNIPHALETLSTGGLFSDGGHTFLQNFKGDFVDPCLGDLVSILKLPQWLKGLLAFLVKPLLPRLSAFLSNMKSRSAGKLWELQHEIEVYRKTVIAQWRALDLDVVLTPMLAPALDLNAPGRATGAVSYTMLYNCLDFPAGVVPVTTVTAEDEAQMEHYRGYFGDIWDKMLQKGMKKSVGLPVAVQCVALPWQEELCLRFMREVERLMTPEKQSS
compound,measurement,setting,value
"CCCCCCC/C=C/C=C/C(=O)NCCc1ccc(OC)c(OC)c1 [WOBE437, (2E,4E)-N-[2-(3,4-Dimethoxyphenyl)ethyl]dodeca-2,4-dienamide]",2-AG level in plasma,[1]; 25 mg/kg p.o.,21.4 ± 4.5 pmol/mL
same,reduction of AEA concentration in plasma,[1]; 50 mg/kg p.o.,23%
same,2-AG levels in somatosensory cortex,"[1]; 50 mg/kg p.o., 1 h",no changes
same,AEA levels in somatosensory cortex,"[1]; 50 mg/kg p.o., 1 h",significant increase
same,AEA concentration in plasma,"[1]; 50 mg/kg p.o., control 2.6±0.2",2.2 ± 0.3 pmol/mL
same,2-AG concentration in total brain,"[1]; 50 mg/kg p.o., control 10.8±2.6",13.9 ± 2.6 nmol/g
same,2-AG level in plasma,[1]; 50 mg/kg p.o.,22.6 ± 4.8 pmol/mL
same,2-AG level in plasma,[1]; 100 mg/kg p.o.,23.8 ± 5.7 pmol/mL
same,increase of 2-AG levels in plasma,"[1]; 25, 50 and 100 mg/kg p.o.",40%
same,AEA and 2-AG levels in total brain,"[1]; p.o., 1 h",tendency to increase
same,levels of N-acylethanolamines other than AEA,"[1]; somatosensory cortex, total brain or plasma",No changes
same,brain level,"[2]; 10 mg/kg p.o., 20 min, C57BL6/J",24.7 ± 25.3 pmol/g
same,apparent volume of distribution (Vd) at Cmax,[2]; 50 mg/kg p.o.,80.4 L/kg
same,apparent volume of distribution (Vd) at the steady state,[2]; 50 mg/kg p.o.,609 L/kg
same,brain concentration 3 h after administration,[2]; 50 mg/kg p.o.,18 pmol/g
same,drop of hepatic concentration between 20 and 40 min,[2]; 50 mg/kg p.o.,4 factor
same,estimated concentration in brain,[2]; 50 mg/kg p.o.,399.7 ± 154.7 nM
same,time until cleared from the brain,[2]; 50 mg/kg p.o.,approximately 180 min
same,brain levels after p.o. as compared to i.p. (times lower),[2]; 50 mg/kg p.o. vs 10 mg/kg i.p.,approximately 10 times
same,highest concentration in kidney,"[2]; 50 mg/kg p.o., 20 min",2277 ± 916 pmol/g
same,highest concentration in liver,"[2]; 50 mg/kg p.o., 20 min",4720 ± 3273 pmol/g
same,highest concentration in spleen,"[2]; 50 mg/kg p.o., 20 min",1030 ± 339 pmol/g
same,brain level,"[2]; 50 mg/kg p.o., 20 min, C57BL6/J",534.5 ± 109.9 pmol/g
same,hepatic concentration,"[2]; 50 mg/kg p.o., 40 min",1080 pmol/g
same,Cmax,[2]; 50 mg/kg p.o.,~2000 nM
same,Tmax,"[2]; male, C57BL6/J, mouse, brain, plasma, po, 50 mg/kg, 50 mg/kg p.o., read-out: tmax in brain and plasma",≤ 20 min
same,Tmax,"[2]; male, C57BL6/J, mouse, kidney, liver, spleen, po, 50 mg/kg, 50 mg/kg p.o., read-out: tmax in kidney, liver and spleen (converted)",20 min
same,Cmax,"[2]; male, C57BL6/J, mouse, plasma, po, 50 mg/kg, 50 mg/kg p.o.",1930 ± 564 nM
same,concentration at 20 min,"[2]; male, mouse, plasma, 10 mg/kg p.o., 20 min, C57BL6/J",47.3 ± 32.5 nM
same,concentration at 20 min,"[2]; male, mouse, plasma, 50 mg/kg p.o., 20 min, C57BL6/J",1730 ± 703 nM
same,inhibition of COX-2 activity,[3],did not inhibit
same,IC50,[4],≥ 10000 nM
same,number of functional CB1 receptors in the brain,[5],did not affect
same,"Hill slope, 2-AG uptake",[6],−0.973
same,IC50,"[6]; Homo sapiens, U-937, 1 μM total 2-AG",283 ± 121 nM
same,clearance,"[7]; 1 μM, preliminary",0.657 mL/min/kg
same,bioavailability at 1 μM,"[7]; human, humans, from microsomal clearance, read-out: estimated maximal bioavailability",4%
same,binding to FABP5,[8],no binding
same,anxiolytic effect after SR1,[9],completely blocked by SR1
same,number of entries and time spent in open arms,[9]; vs vehicle,significantly increased
same,"Hill slope, AEA uptake",[10]; Neuro2a cells,−0.705
same,inhibition at 1 µM,"[10]; mouse/rat NG108-15, N2a, 2-10 min of incubation",35%
same,inhibition at 1 µM,"[10]; mouse/rat NG108-15, N2a, 15-20 min of incubation",20%
same,IC50,"[10]; mouse/rat NG108-15, N2a, Neuro2a cells",55 ± 18 nM
